Experimental data published in patent US9248171B2, “Immunogenic peptides and their use in transplantation” (IMCYSE SA, priority 2008, dated 2016).
Marks after values point to notes of the source that are not given here.

Experiments:
[1] = test system: APC (antigen-presenting cells); assay: Apoptosis of peptide-loaded APC (Annexin V binding) induced by CD4+ T cells from immunized mice (Dby peptides); format: cell-based, C57B1/6 mice; details: 10 μg peptide SC in CFA then IFA; APC loaded with SEQ ID. NO: 5 or SEQ ID. NO: 6
Method: Groups of C57BL/6 female mice were immunized with 10 μg of peptide of SEQ ID. NO: 6 emulsified in CFA (complete Freund's adjuvant) for the first SC (subcutaneous) injection and in IFA (incomplete Freund's adjuvant) for the two subsequent immunizations. The spleen of such mice was retrieved 10 days after the last immunization and CD4+ T cells were obtained by cell sorting using magnetic beads.
These CD4+ T cells were assayed in vitro for their capacity to induce apoptosis of APC (antigen-presenting cells). Thus, spleen cells of naïve C57B1/6 mice were deprived of CD4+ T cells by magnetic bead sorting and used as APC. Such APC were loaded with peptides of either SEQ ID. NO: 5 or of SEQ ID. NO: 6 by incubation for 16 h at room temperature. The cells were then washed to eliminate residual free peptides.

[2] = test system: heterotopic male heart transplant; assay: Heterotopic male heart transplant in pre-immunized syngeneic female mice; format: in vivo, C57B1/6 mice; details: 3 subcutaneous injections at fortnight intervals in CFA/IFA
Text: To establish the proof of concept that cytolytic regulatory CD4+ T cells of the present invention can prevent rejection of a vascularized organ, the model of heterotopic heart transplantation is used. This method is well known in the art, as described for instance in Kadner A et al, European Journal of Cardio-thoracic Surgery (2000) 17: 474-481. Briefly, the method consists in abdominal implantation of the heart in a non-working setting, namely the heart is vascularized but not supporting the circulation. This allows long-term follow-up of the graft and multiple biopsies without killing the experimental animal.
Hearts from C57BL/6 males are grafted using such technique in the abdomen of syngeneic females. The rejection process, which is mediated by expression of H-Y-derived antigens in both MHC class I and MHC class II determinants, is mainly due to the circulation of recipient's specific CD4+ T cells that are activated by recognition of alloantigen-derived peptides by graft endothelial cells. Such CD4+ T cells produce IL-2 and IFN-gamma, driving more inflammation and providing help for the maturation of specific CD8+ T cells.
C57B1/6 female mice are pre-immunized before receiving the male allograft with peptides of either SEQ ID NO:5, SEQ ID NO:6 or a sham peptide. This is carried out by 3 subcutaneous injections of peptides made at fortnight intervals in either CFA/IFA. Thereafter, all mice receive a heterotopic male heart transplant.

[3] = test system: male C57B1/6 skin allograft; assay: Skin graft rejection, male skin onto pre-immunized syngeneic female mice (naive mice); format: in vivo, C57B1/6 mice; details: for Rejection rate Day 10 / Rejection rate Day 20: 3 SC injections, rejected mice/mice, rejection = more than 50% of graft surface necrotic; for Effect of pre-immunization on skin graft rejection (in words): pre-immunization in either CFA/IFA or alum
Method: One of the most studied models of graft rejection is skin grafting between syngeneic animals of different sex. Thus, the […] contains a number of genes, in particular the Dby gene, which encodes a minor histocompatibility antigen that elicits strong CD4+ T cell activation and chronic rejection in females. […] T cell epitopes from the Dby antigen have been described and selected as shown in Example 1 (peptide of SEQ ID. NO: 5). A synthetic peptide of SEQ ID. NO: 6 was prepared. Groups of 3 female C57B1/6 mice (H-2b haplotype) were made for testing the capacity of modified peptides of SEQ ID NO:1 to elicit tolerance to the skin allograft. Where applicable, pre-immunization was carried out by 3 subcutaneous injections of peptides containing either the natural epitope or its modified counterpart. Injections were made at fortnight intervals in either CFA/IFA or alum. Groups were therefore as follows: • Group 1: skin allograft without preimmunization • Group 2: skin autograft • Group 3: preimmunization with peptide of SEQ ID. NO: 6 emulsified in CFA (first immunization) and IFA for second and third immunization) • Group 4: same as in Group 3, but with alum as an adjuvant • Group 5: same as in Group 3, but using the natural peptide of SEQ ID. NO: 5 All these mice, except for Group 2 mice, received a male C57B1/6 skin allograft of 1 cm2, either directly (Group 1) or 2 weeks after the last immunization for Groups 3, 4 and 5. Group 2 mice received and autograft. Rejection rate was evaluated at day 10 and 20 and judged effective if more than 50% of the graft surface was necrotic.

[4] = test system: Bm12 mouse skin allograft; assay: Rejection of Bm12 skin graft (MHC class II mismatch) in pre-immunized C57B1/6 mice; format: in vivo; details: 3 subcutaneous administrations in CFA/IFA at fortnight intervals
Text: The Bm12 mice constitute a variant of the C57B1/6 mice in which a spontaneous mutation has occurred in the I-Ab locus. This mutation consists of 3 amino acid substitutions in a stretch of 5 amino acids and thereby generates a limited MHC class II mismatch between Bm12 mice and C57B1/6 wild type mice. This mismatch is nevertheless sufficient as to elicit rejection of Bm12 mouse skin allograft.
The 3 substituted amino acids are Ile67Phe, Arg70Gln and Thr71Lys located in the third hypervariable region of the beta chain. A synthetic peptide encompassing these residues was made and has the sequence: PEFLEQKRA (SEQ ID. NO: 10). This peptide was modified according to the invention by incorporation of a thioreductase consensus sequence, resulting in the exemplary immunogenic peptide CGHCPEFLEQKRA (SEQ ID. NO: 11).
Cytotoxic CD4+ regulatory T cells towards the modified peptide of SEQ ID. NO: 11 are elicited in C57B1/6 mice by 3 subcutaneous administration of the peptide in CFA/IFA given at fortnight intervals. Such mice are then grafted with the skin of Bm12 mice.

## CHGCFNSNRANSS (redox motif + T cell epitope of Dby antigen) [SEQ ID. NO: 6]
[1]
  APC apoptosis (surface binding of Annexin V) induced by CD4+ T cells of mice immunized with the peptide: induced into apoptosis
[2]
  Graft findings (cellular infiltration, endothelitis, chronic vascular lesions): absence of cellular infiltration, of signs of endothelitis and of chronic vascular lesions
  Outcome of transplanted heart after pre-immunization: tolerate the graft
[3]; pre-immunization in CFA/IFA
  Rejection rate Day 10: 0/3
  Rejection rate Day 20: 0/3
[3]; pre-immunization in alum
  Rejection rate Day 10: 0/3
  Rejection rate Day 20: 0/3
[3]
  Effect of pre-immunization on skin graft rejection (in words): fully prevents graft rejection

## CGHCPEFLEQKRA (redox motif + mutated version of I-Ab locus) [SEQ ID. NO: 11]
[4]
  Rejection of Bm12 skin graft after preimmunization: reject the B12m graft unless they are preimmunized with the peptide of SEQ ID. NO: 11

## FNSNRANSS (T cell epitope of Dby antigen) [SEQ ID. NO: 5, reference compound]
[1]
  APC apoptosis (surface binding of Annexin V) induced by CD4+ T cells of mice immunized with the peptide: did not induce any significant degree of APC apoptosis
[2]
  Outcome of transplanted heart after pre-immunization: show rejection of the transplanted heart
[3]; pre-immunization in CFA/IFA
  Rejection rate Day 10: 2/3
  Rejection rate Day 20: 2/3**
[3]
  Effect of pre-immunization on skin graft rejection (in words): accelerates the rejection
